Assay results as given in US5536723A, “S-nitroso derivatives of hydrazinoacetic acids, 1-[(acylthio and (mercapto)-1-oxoalkyl]-1,2,34-Tetrahydroquinoline-2-carboxylic acids and alanyl prolines and isoquinolines” (Brigham & Women's Hospital, priority 1994, dated 1996).

Columns and labels:
bovine femoral artery = experiment: relaxation of isolated bovine femoral artery rings contracted with norepinephrine; settings: norepinephrine-contracted; FIG. 2
Protocol: FIG. 2 depicts a graph showing the effect of S-nitrosocaptopril on the contraction of bovine femoral arteries to norepinephrine.
(§1) Blood Vessel Preparation. Bovine coronary or femoral arteries were obtained from an abattoir immediately after sacrifice of two- to four-week-old calves. Immediately after removal, the vessel was placed in ice-cold physiologic salt solution (PSS) containing 118.3 mM NaCl, 4.7 mM KCl, 2.5 mM CaCl2, 1.2 mM MgSO4, 1.2 mM KH2 PO4, 25.0 mM NaHCO3, 11.1 mM glucose, and 0.026 mM calcium disodium (ethylenedinitrilo)-tetraacetate. The vessels were then cleaned of adventitial tissue and cut into rings of approximately 5 mm lengths. When called for by the protocol, endothelium was removed from a ring by gently rubbing the luminal surface with a watchmaker's forceps. Vascular rings with intact endothelium were then suspended in organ chambers containing 25 ml of PSS at 37° aerated with 95% O2 -5% CO2. The rings were connected to force transducers (Grass FT03C, Quincy, Mass.) and changes in isometric force recorded continuously (Grass Polygraph Model 79B) over a period of 90 minutes. The optimal length-tension relationship was determined for each ring by observing the response to 10^-6 M norepinephrine after increments in tension of 0.5 gm. The functional integrity of the endothelium was assessed by contracting the vessel with 10^-6 M norepinephrine and then observing the response to 3×10^-7 M acetylcholine chloride.
Vascular ring segments with intact endothelium were […] contracted with a concentration of norepinephrine inducing a half-maximal response. After a stable contraction had been achieved, the tissue was exposed to increasing concentrations of S-nitrosocaptopril in cumulative half-log increments. […] The apparent IC50 is approximately 1 μM.

platelets = experiment: platelet aggregation in PRP induced by ADP; format: cell-based, human; settings: 11 μM ADP
Protocol: FIG. 7 depicts a graph showing the effect of S-nitrosocaptopril on platelet aggregation. Platelets in PRP were incubated with S-nitrosocaptopril over a range of concentrations for three minutes, after which ADP was added to a final concentration of 11 uM. The maximal rate of aggregation was measured and plotted as a percentage of that observed in the absence of S-nitrosocaptopril. Each point represents the mean ±SEM of five experiments each performed in duplicate.
Platelets. Volunteers who had not ingested acetylsalicylic acid for at least ten days provided venous blood within one hour of use. […] Platelet counts were determined using a Coulter counter (Model ZM; Coulter Electronics, Hialeah, Fla.) and adjusted with platelet-poor plasma (PPP) to 1.5×10^8 platelets/ml prior to use.
Platelet Aggregation. Platelet aggregation was monitored using a standard nephelometric technique (Born and Cross, J. Physiol (London) 168:178-195 (1963)) in which PRP was incubated at 37° with a final concentration of 11 μM ADP and stirred at 900 rpm in a Payton dual channel aggregometer (Payton Associates, Inc., Buffalo, N.Y.). Aggregation was quantitated by measuring either the maximal rate of change of light transmittance or the extent of change of light transmittance. […]

[1] = arterial pressure in the anesthetized rabbit; format: in vivo; settings: 1 mM solution infused in an ear vein, 0.02 to 2.2 ml/min
Protocol: A 1 mM solution of S-nitrosocaptopril was infused in an ear vein of the rabbit at rates from 0.02 to 2.2 ml/min and the phasic and mean arterial pressure recorded in the femoral artery.

[2] = system: bovine femoral artery, contraction to angiotensin I; experiment: contraction of the bovine femoral artery to angiotensin I
Protocol: The data are expressed as a percentage of the maximal response to norepinephrine (10^-6 M) and are shown as mean ±SEM in each group (n=7).
as §1

[3] = system: bovine femoral artery, response to bradykinin; experiment: response of the bovine femoral artery to bradykinin; settings: 10^-6 M
Protocol: as §1
In the bovine femoral artery contracted with a concentration of norepinephrine inducing a half-maximal response, bradykinin induced a biphasic response.

[4] = system: soluble guanylate cyclase; settings: Ignarro 1980; cited from earlier work
[5] = system: guanylate cyclase in arterial smooth muscle; settings: Horowitz 1983; cited from earlier work
platelet aggregation = settings: Loscalzo 1985; cited from earlier work

C[C@H](CS)C(=O)N1CCCC1C(=O)O (stereo in doubt) [captopril, D-3-mercapto-2-methylpropanoyl-L-proline]
relaxation response (in words) (bovine femoral artery): no relaxation response
inhibitory effect on platelet aggregation (in words) (platelets): no inhibitory effect
effect on blood pressure (in words) [1]: no effect on blood pressure
inhibition of contractions to angiotensin I, S-nitrosocaptopril versus captopril (in words) [2]: equally inhibited contractions to angiotensin I
effect on the response to bradykinin (in words) [3]: Neither response to bradykinin was affected

N[C@@H](CCC(=O)N[C@@H](CSN=O)C(=O)NCC(=O)O)C(=O)O [S-nitrosothiol of glutathione]
activation of soluble guanylate cyclase (in words) [4]: capable of activating soluble guanylate cyclase
activation of guanylate cyclase in arterial smooth muscle (in words) [5]: potent activators of guanylate cyclase

CC(=O)N[C@@H](CSN=O)C(=O)O [S-nitroso-N-acetyl cysteine]
inhibition of platelet aggregation (in words) (platelet aggregation): extremely potent inhibitor of platelet aggregation

NC(CSN=O)C(=O)O (stereo not shown) [S-nitrosothiol of cysteine]
activation of soluble guanylate cyclase (in words) [4]: capable of activating soluble guanylate cyclase
activation of guanylate cyclase in arterial smooth muscle (in words) [5]: potent activators of guanylate cyclase
